# Data from patent publication US7629318B2, “Immunosuppressant compounds, methods and uses related thereto” (priority 2002, dated 2009).
# Values joined by “and” are separate entries in the source; they are usually repeats but may differ in a detail not shown here. Equal entries are not always repeated. Numbered stars: 1 amine (or outer) side, 2 acyl side, 3 side chain; on linkers, the order of the positions; unused ones are H or OH. Square brackets hold non-standard residues; d marks the D form. Peptide text beside a SMILES is read from it. X1 = CC(C)c1oc([C@H](CO)N[*:1])nc1C(=O)[*:2]; Pro(3R-Ph) = O=C(O)[C@H]1NCC[C@@H]1c1ccccc1; Tic = O=C(O)[C@@H]1Cc2ccccc2CN1; Cha = N[C@@H](CC1CCCCC1)C(=O)O
# Experiments:
# [1] = test system: T cell activation from 0404(DR14) chimeric MHCII-mice; experiment: In vivo inhibition of T cell activation by co-immunisation, DR14 mice immunised with OVA; design: species or system mouse; % Reduction of response to PPD(OVA): concentration or dose not given beside the values
# Excerpt: (§1) Mouse strains DR4 and DR14 carry chimeric MHC-II transgenes that encode the N-terminal domains of the respective DR molecules (forming the peptide binding site) and the remaining (2nd extracellular domains, transmembrane and intracytoplasmic domains) of the murine class II molecule I Ed. These strains are deficient of other murine class II, and thus, all helper T cell responses are triggered by peptides presented in the respective human MHC-II binding site. As an initial in vivo test of subject inhibitors designed to bind to DR, DR-transgenic mice were co-immunized with a pre-defined dose of protein antigen and different amounts of the compound antagonist to be tested. In this set-up, both antigen and compound were emulsified together in complete Freund's adjuvant (CFA), and thus, a direct competition between the two components for presentation by DR was tested. Readout of the assay is ex vivo antigen-specific activation of T cells from regional lymph nodes explanted 9 days after co-immunization. In a typical experiment, antigen dose-response was investigated, and the curves from mice immunized with antigen were compared to those from mice co-immunized with antigen+compound. The dose response curves were generated using lymph node cells pooled at equal numbers from 2-3 mice per experimental group. The experimental system also permits assessment of inherent antigenicity of the compound antagonist. This was done by setting up a dose-response study from the same cell pool using different concentrations of the compund under investigation instead of the antigen. As a specificity control, the response to Purified Protein Derivative (PPD), the major protein component of CFA, was tested in the same cell pool.
# (§2) All Gpg conataining compounds have significant immunosupressive properties in one or both of the in-vivo models. Gpg-containing compounds also show improved activity or improved specificity over the Arg-containing equivilent. Further, compounds according to Formula I show activity in this assay.
# (§3) Compounds of the invention were injected as an Emulsion prepared using CFA (Bacto Adjuvant Complete H37 Ra, Difco, Order-No. 3113-60); proteins 10 mg/ml in PBS, inhibitors 5 μM in 10% DMSO. CFA, PBS, antigen, and inhibitor were placed in the barrel of a 5-ml syringe (total volume not more than 1 mL). The mixture was sonicated at an amplitude less than 40% (30-35%) for two separated 15 s periods. The emulsion should seem to be hard and not liquid at this point. A drop of emulsion placed on the surface of water should not melt. The resulting emulsion was pushed through the needle into a 1 ml syringe with a needle (Gr.18, 26G×1″), and air bubbles were removed. Mice were co-immunized with 50 μg protein and 210 nM compound antagonist in final 100 μl emulsion into the tail base. Antigen+Compound and CFA are mixed 1:1 vol/vol. The best results are obtained using DR 4 mice immunised with HEL and DR 14 mice immunized with OVA.
# (§4) Mice were injected at the tail-base as follows: Holding the tail of a mouse with thumb and middle finger, the index finger was placed under the base of the mouse's tail. The needle of the syringe was inserted about 1.5 cm from the tail base (hairy end) under the skin and pushed about 1 cm into the tail. 100 μl emulsion was injected into the mouse. After 9 days, mice were killed and lymph nodes removed.
# (§5) The inhibitory effect of the candidate compounds on T-cell activation was tested using T-cells and antigen-presenting cells isolated from the lymph nodes of chimeric DR4-IE transgenic mice (Taconic, USA) previously co-immunized with hen egg lysozyme plus compound, or DR14-IE transgenic mice co-immunized with ovalbumin plus compound according to standard procedures (Adorini et al., 1988, Mueller et al., 1990; Current Protocols in Immunology, Vol. 2, 7.21; Ito et al., 1996). […]
# [2] = test system: T cell activation from 0401(DR4) chimeric MHCII-mice; experiment: In vivo inhibition of T cell activation by co-immunisation, DR4 mice immunised with HEL; design: species or system mouse; % Reduction of response to PPD(HEL): concentration or dose not given beside the values
# Excerpt: as §1, §2, §3, §4, §5
# [3] = molecular target: T1, LG2 (DR1: DRA1*0101 DRB1*0101) cells (Homo sapiens, UniProt P01903+P01911, A100R/D57E/F55L/F60I/F76Y/I96L/L162R/M171V/P40L/Q125E/R42F/V115G/Y59C); experiment: Competitive binding to MHC II proteins expressed on LG2 cells; format: cell-based; settings: Cell binding IC50 (uM) LG2 (0101), LG2 (0101)
# T1 construct: MHC II Proteins Expressed on PRIESS and LG2 Cells; endogenous in cells; host or cells: LG2 cells
# Protocol: (§6) For use in the binding assay the cells were re-suspended in medium containing 1% FCS at a density of 2.5×10^6 cells/ml.
# (§7) The assay was performed in sterile 96 well polystyrene microtiter plates. A 10 fold dilution series of compounds (16 nM-1615 μM) in 1% FCS was prepared from 5 or 10 mM compound stock solutions in 10% DMSO/water. 50 μl of each compound dilution were added in duplicates to 50 μl of a 16 μM solution of indicator peptide in 1% FCS. Cell binding was initiated by adding 100 μl of 2.5×10^6 cells/ml 1% FCS to each well. Controls were included containing the DMSO concentration present in the solution with the highest compound concentration. The cells were incubated at 37° C., 6% CO2. After 4 hours the cells were washed with 200 μl PBS and lysed in 200 μl lysis buffer (50 mM sodium phosphate, 150 mM sodium chloride, 1% (w/v) NP-40, 25 mM iodoacetamide, 1 mM PMSF, 3.1% protease inhibitor cocktail: 0.32 g/l of Chymostatin, Antipain, Pepstatin A, Soybean trypsin inhibitor and Leupeptin each, pH 7.5) for 10 min.
# (§8) After washing with PBS, 190 μl of cell lysate were transferred to the appropriate wells of the capture plate and incubated for 2 h at 4° C. The wells were washed six times with 200 μl/well cooled (4 to 8° C.) of 1×DELFIA wash (Wallac-ADL-GmbH, Freiburg), incubated with 100 μl of cooled Europium-streptavidin conjugate (Wallac-ADL-GmbH, Freiburg; diluted 1/1000 with DELFIA assay buffer) for 30 minutes at 4° C., again washed six times with cooled 1×DELFIA wash and, finally, incubated with 200 μl cooled DELFIA enhancement solution (Wallac-ADL-GmbH, Freiburg) for one hour at room temperature before reading the time-resolved europium fluorescence at λex Eu^3+: 340 nm and λem Eu^3+: 613 (615) nm (Wallac Victor^2 1420 Multilabel Counter, Wallac-ADL-GmbH, Freiburg).
# [4] = test system: T-cell proliferation, lymph node cells of chimeric 0401-IE transgenic mice; settings: read-out: Immunsupressive assays DR4-LN (IC50); DR4-LN
# Protocol: The compounds were tested as follows to inhibit the proliferative T cell response of antigen-primed lymph node cells from mice carrying a chimeric mouse-human class II transgene with an RA-associated peptide binding site, and lack murine class II molecules (Muller et al., 1990; Woods et al., 1994; Current Protocols in Immunology, Vol. 2, 7.21; Ito et al., 1996). Here, the immunization takes place in vivo, but the inhibition and readout are ex vivo. […] These mice lack murine MHC class II, and thus, all Th responses are channelled through a single human RA-associated MHC class II molecule (Ito et al. 1996). These transgenic mice represent a model for testing human class II antagonists.
# 1.5×10^5 cells are incubated in 0.2 ml wells of 96-well tissue culture plates in the presence of ovalbumin (30 μg per well—half-maximal stimulatory concentration) and a dilution series of the compound under test (from around 0.1 to 200 uM) in serum free HL-1 medium containing 2 mM L-glutamine and 0.1 g/l Kanamycin for three days. Antigen specific proliferation is measured by 3H-methyl-thymidine (1 μCi/well) incorporation during the last 16 h of culture (Falcioni et al., 1999). Cells are harvested, and 3H incorporation measured using a scintillation counter (TopCount, Wallac Finland).
# [5] = molecular target: T2, Priess (DR4Dw4: DRA1*0101 DRB1*0401) cells (Homo sapiens, UniProt P01903+P01911, A100K/A169T/F76Y/I96L/K127E/L162R/M171V/N62H/P40V/Q125Y/R42H/S133A/S149N/S66Y/V115G/V209L/W38E); experiment: Competitive binding to MHC II proteins expressed on Priess cells; format: cell-based
# T2 construct: MHC II Proteins Expressed on PRIESS and LG2 Cells; endogenous in cells; host or cells: Priess cells
# Protocol: as §6, §7, §8
# [6] = molecular target: DR1 (DRA1*0101 DRB1*0101) (Homo sapiens, UniProt P01903+P01911, A100R/D57E/F55L/F60I/F76Y/I96L/L162R/M171V/P40L/Q125E/R42F/V115G/Y59C); experiment: Competitive binding to MHC-II protein DR1; settings: Protein binding IC50 (nM) 0101, 0101
# How it was run: (§9)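 Each MHC-II allele incubated with compound 16 hours at room temperature in duplicate; controls lacked compound, or both compound and MHC-II. Complexes captured 2 h at 4 °C, bound biotinylated peptide detected via europium-streptavidin and DELFIA enhancement, time-resolved fluorescence read at ex 340/em 613 (615) nm.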
# [7] = molecular target: DR4Dw14 (DRA1*0101 DRB1*0404) (Homo sapiens, UniProt P01903+P01911, A100R/A169T/F76Y/I96L/K127E/L162R/M171V/N62H/P40V/Q125Y/R42H/S133A/S149N/S66Y/V209L/W38E); experiment: Competitive binding to MHC-II protein DR4Dw14; settings: 0404; read-out: Protein binding IC50 (nM) 0404
# How it was run: as §9
# [8] = molecular target: Cathepsin B1 (EC 3.4.22.1 from bovine spleen) (Bos taurus, UniProt P07688); settings: Cathepsin B, 4 h
# Cathepsin L = Cathepsin L (Homo sapiens, UniProt P07711)
# [9] = test system: T-cell proliferation, DR14-LN; settings: read-out: Immunsupressive assays DR14-LN (IC50)
# [10] = molecular target: DR4Dw4 (DRA1*0101 DRB1*0401) (Homo sapiens, UniProt P01903+P01911, A100K/A169T/F76Y/I96L/K127E/L162R/M171V/N62H/P40V/Q125Y/R42H/S133A/S149N/S66Y/V115G/V209L/W38E); experiment: Competitive binding to MHC-II protein DR4Dw4
# How it was run: as §9
compound,measurement,setting,value
Ac-Cha-Gpg-Disc-Nle-βPhPro-[S(oxaz)L]-NMe2 [Compound P61-1],% Reduction of response to OVA,"[1]; DR14 mice co-immunised with OVA plus compound, mean % inhibition from the control over 3 concentrations of antigen (6.7, 20 and 60 ug)",3.7%
same,% Reduction of response to PPD(OVA),"[1]; specificity control: response to PPD in the same cell pool, OVA co-immunised mice",29.9%
same,% Reduction of response to HEL,"[2]; DR4 mice co-immunised with HEL plus compound, mean % inhibition from the control over 3 concentrations of antigen (6.7, 20 and 60 ug)",37.9%
same,% Reduction of response to PPD(HEL),"[2]; specificity control: response to PPD in the same cell pool, HEL co-immunised mice",32.3%
"CSCC[C@H](NC(=O)[C@@H]1Cc2ccccc2CN1C(=O)[C@H](CCCNC(=N)N)NC(=O)[C@H](CC1CCCCC1)NC(C)=O)C(=O)N1CC[C@H](c2ccccc2)[C@H]1C(=O)N[C@@H](CO)c1nc(C(=O)N(C)C)c(C(C)C)o1 [Compound P33, Ac-Cha-Arg-Tic-Met-βPhPro-[S(oxaz)L]-NMe2] (Ac-[Cha]R[Tic]M[Pro(3R-Ph)][X1]-NMe2)",IC50,[3],4.6 µM
same,IC50,[4],40 µM
same,IC50,[5],3.2 µM
same,IC50,[6],190 nM
same,IC50,[7],220 nM
same,Stability (Arbitrary units) Cath B 4 h,[8],97 Arbitrary units and 98 Arbitrary units
same,Stability (Arbitrary units) Cath L 4 h,Cathepsin L,107 Arbitrary units
same,IC50,[9],32 µM
same,IC50,[10],0.3 µM
